Measurements reported in the NIST ThermoML archive (doi:10.1021/je700139p).
± gives the expanded uncertainty stated by the source.

Experiment: activity coefficient (dimensionless); of the first substance listed, at infinite dilution; xn = mol fraction of the nth substance listed
Details: 101 kPa, Liquid, Chromatography, x1 = 0

SMILES	activity coefficient (333.15 K)	activity coefficient (343.15 K)	activity coefficient (353.15 K)	activity coefficient (363.15 K)	activity coefficient (373.15 K)
Cc1ccccc1 [toluene] + O=S1(=O)CCCC1	3.46 ± 0.23	3.38 ± 0.23	3.29 ± 0.22	3.23 ± 0.22	3.2 ± 0.22
c1ccccc1 [benzene] + O=S1(=O)CCCC1	2.32 ± 0.16	2.3 ± 0.16	2.28 ± 0.15	2.26 ± 0.15	2.25 ± 0.15
Cc1cccc(C)c1 [1,3-dimethylbenzene] + O=S1(=O)CCCC1	5.35 ± 0.36	5.13 ± 0.35	4.98 ± 0.34	4.77 ± 0.33	4.65 ± 0.32
Cc1ccccc1C [1,2-dimethylbenzene] + O=S1(=O)CCCC1	4.57 ± 0.31	4.39 ± 0.3	4.28 ± 0.29	4.17 ± 0.28	4.04 ± 0.28
Cc1ccc(C)cc1 [1,4-dimethylbenzene] + O=S1(=O)CCCC1	5.51 ± 0.38	5.25 ± 0.36	5.11 ± 0.35	4.88 ± 0.33	4.76 ± 0.32
CCCCCCCCCC [decane] + O=S1(=O)CCCC1	147 ± 10	126 ± 8.6	107 ± 7.3	92.2 ± 6.3	79.8 ± 5.5

More lines, now with the values ahead:

activity coefficient (333.15 K)	activity coefficient (343.15 K)	activity coefficient (353.15 K)	activity coefficient (363.15 K)	activity coefficient (373.15 K)	SMILES
4.82 ± 0.33	4.65 ± 0.32	4.48 ± 0.3	4.35 ± 0.3	4.26 ± 0.29	CCc1ccccc1 [ethylbenzene] + O=S1(=O)CCCC1
80.7 ± 5.5	70.5 ± 4.8	61.7 ± 4.2	54.3 ± 3.7	48.6 ± 3.3	CCCCCCCC [octane] + O=S1(=O)CCCC1
60.3 ± 4.1	53.1 ± 3.6	47.6 ± 3.3	41.2 ± 2.8	38.5 ± 2.6	CCCCCCC [heptane] + O=S1(=O)CCCC1
